Laboratory results taken from a melting point compilation (Tetko et al.; mined from patent text by program, amines drawn as free bases though some values may be those of a salt).

| melting point [°C] | SMILES |
| --- | --- |
| 215 to 218 | NC(=O)c1csc(-c2cc3c(Oc4ccc(Cl)cc4)cncc3s2)n1 |
| 115 to 117 | CC(C)(C)NC(=O)[C@@H]1C[C@H](N2CCOCC2)CN1C(=O)[C@@H](O)[C@H](Cc1ccccc1)NC(=O)[C@H](CC(N)=O)NC(=O)OCc1ccccc1 |
| 170 to 171 | O=C1CC(C(=O)O)Oc2ccccc21 (stereo not given) |
| 188 to 189 | Cn1nc2c(N)nc3ccccc3c2c1CCCCCl |
| 96 to 99 | O=Cc1cccn2cc(-c3ccccc3)nc12 |
| 84 to 86 | N#Cc1cccc(Oc2ncccc2OCCCc2ccncc2O)c1 |
| > 300 | Cn1ncc2nc3c(c(O)c21)CCCC3 |
| 94 to 95 | CCC(CC)c1nn(-c2ccc(Br)cn2)cc1CCCOc1c(CC(=O)O)cccc1OC |
| 140 to 141 | CSc1cc(C)nc(SC)c1NC(=O)CN1CCN(CCSc2nc3ccccc3o2)CC1 |
| 171 to 172 | O=C(Nc1cccc(C(F)(F)F)c1)c1ccccc1NCc1ccc(=O)[nH]c1 |
| 266 | CCOc1ccc(OCC(N)=O)c(C(Nc2ccc(C(=N)N)cc2)C(=O)O)c1 (racemic) |
| 129 to 130 | CSN=C1C(=O)N2C1SC(C)(C)C2C(=O)OCC(Cl)(Cl)Cl (stereo not given) |
| 52 to 58 | CCCCNC(=O)OCCCC(=O)c1ccccc1 |
| 175 to 176 | NC(CN1CCC(=C2c3ccccc3C=Cc3ccccc32)CC1)C(=O)NCC(=O)O (stereo not given) |
| 98 to 100 | CCn1cc(-c2ccccc2)c(=O)c(-c2cccc(C(F)(F)F)c2)c1 |
| 102 | O=C(NO)[C@H](CNCS(=O)(=O)c1ccc(OCc2ccccc2)cc1)N1CCCCC1 |
| 120 to 121 | O=C(Nc1ccccc1)N(Cc1ccc(F)cc1)C1CCCC1 |
| 165 to 167 | COc1ccc2c(O)c(C(=O)NCCO)nc(Cl)c2c1 |
| 110 to 113 | Cc1cc(C(O)(C(F)(F)F)C(F)(F)F)cc(C)c1NCCO |

| melting point [°C] | SMILES |
| --- | --- |
| 174 to 175 | COc1ccc(-c2nn(CC3CC3)c(=O)c(C(N)=O)c2-c2ccc(OC)cc2)cc1 |
| 201 to 202 | O=C(CNC(=O)C(Cc1ccc(OCc2ccccc2)cc1)NC(=O)OCc1ccccc1)Nc1n[nH]c(=S)s1 (stereo not given) |
| 100 to 103 | COC(=O)NCC1Cc2cc(Cl)cc(C3CCCCC3)c2O1 (stereo not given) |
| 134 to 136 | N#Cc1ccc(OCCCCCCOc2cccc(-c3cc4cc(C#N)ccc4o3)c2)cc1 |
| 158 to 160 | CC(C)Oc1c(-c2ccc(S(N)(=O)=O)cc2)cnn(CC(F)(F)F)c1=O |
| 77 to 78 | CCNc1nc(-c2ccc(F)c3ccccc23)cc(C(C)C)n1 |
| 90 to 95 | CCCCCC(Sc1ccc(OC)cc1)C(=O)O (stereo not given) |
| 253 to 255 | CS(=O)(=O)c1cccc(NC(=O)c2cnn3c(Cl)cc(-c4ccc(Cl)cc4)nc23)c1 |
| 134 to 137 | COc1ccc(N2CCN(c3c(C)c(C)c4c(c3C)CC(C)(CN)O4)CC2)cc1 (stereo not given) |
| 237 to 239 | CN1CCN(S(=O)(=O)c2ccc(Nc3ncnc4cc(Cl)ccc34)cc2)CC1 |
| 81 to 83 | CCOC(=O)C1Oc2cc(C=O)c(Cl)c(Cl)c2O1 (stereo not given) |
| 208 to 209 | CC1(C)NC(=O)OC12CCN(C(=O)OCc1ccccc1)CC2 |
| 121 | CN(CCNC(=O)c1ccccc1)C(=O)c1ccccc1 |
| 112 | C#CCc1c(C)nc2c(OCc3ccccc3)cccn12 |
| 119 to 120 | CSc1nc(CO)c(CO)n1C |
| 137 to 142 | CCC1(C)NC(=O)C(c2c(C)cc(C)cc2C)C1=O (stereo not given) |
| 145 to 146 | CCC1(CCCCN2CCN(c3ccc(Cl)cc3)CC2)C(=O)Nc2ccccc21 (stereo not given) |
| 154 to 156 | COc1cc(C(=O)O)ccc1OCCCCl |
| 154 to 155 | CS(=O)(=O)c1ccc(-c2nnsc2-c2ccccc2)cc1 |

| SMILES | melting point [°C] |
| --- | --- |
| Nn1c(=O)cc2n(C3CC3)c3cc(N4CCNCC4)c(F)cc3n2c1=O | 232 to 234 |
| OC1(C#Cc2ccc(-c3ccc(F)cc3)cc2)CN2CCC1CC2 (stereo not given) | 232 to 233 |
